Laboratory results as given in patent US11702422B2, “Imidazopyridazines as modulators of IL-17” (Janssen Pharmaceutica NV, priority 2020, dated 2023).

Tests used:
[1] = target: IL-17A(FLAG-Tagged): IL-17RA(His-Tagged) (Homo sapiens, UniProt Q16552, K93Q); test: IL-17A(FLAG-Tagged): IL-17RA(His-Tagged) Binding Disruption Eu-HTRF Assay; settings: IL-17A/IL-17RA binding disruption, simple average if tested more than once
Outline: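 IC50 comes from a one-site competition fit of the HTRF 665/620 nm ratio. Compound dilutions (2-fold, 22 points) were held 1 h rt with FLAG-tagged IL-17A dimer, then His-tagged IL-17RA plus Eu-cryptate anti-FLAG and D2 anti-His antibodies were added for 2 h rt.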

[2] = test system: IL-17A-induced G-CSF production in human normal keratinocyte (NHK); test: NHK Assay: IL-17A-induced G-CSF production in human normal keratinocytes; assay type: cell-based; settings: Homo sapiens, Keratinocyte, 24 h, adult normal human keratinocytes, IL-17A 5 ng/mL, simple average if tested more than once
Outline: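 Inhibition of IL-17A-driven G-CSF release is measured in adult keratinocytes stimulated for 24 h at 37° C with 5 ng/mL human IL-17A that had been pre-incubated with compound for 1 h. IC50 comes from HTRF G-CSF levels; cell viability is checked in parallel by luminescent ATP assay.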

UniProt Q16552, sequence (Q16552 with tags, fused parts or gaps K93Q): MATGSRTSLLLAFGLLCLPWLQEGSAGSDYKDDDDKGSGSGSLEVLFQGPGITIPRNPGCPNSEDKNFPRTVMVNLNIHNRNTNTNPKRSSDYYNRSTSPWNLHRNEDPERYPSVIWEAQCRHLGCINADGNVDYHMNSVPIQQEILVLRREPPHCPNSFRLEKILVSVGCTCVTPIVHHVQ

Work on `O=C(CCC(F)(F)F)N[C@@H](c1cnn2cc([C@@H](NC(=O)c3cc(OC(F)F)ccc3F)C3CCC(F)(F)CC3)nc2c1)C1CC1` [Example 169, N—((S)-(7-((R)-Cyclopropyl(4,4,4-trifluorobutanamido)methyl)imidazo[1,2-b]pyridazin-2-yl)(4,4-difluorocyclohexyl)methyl)-5-(difluoromethoxy)-2-fluorobenzamide] yielded an IC50 [1] of 37 nM and an IC50 [2] of 200 nM.
Compound `O=C(CCC(F)(F)F)N[C@@H](c1cnn2cc([C@@H](NC(=O)c3cccc(C(F)F)c3)C3CCC(F)(F)CC3)nc2c1)C1CC1` [Example 170, N—((S)-(7-((R)-Cyclopropyl(4,4,4-trifluorobutanamido)methyl)imidazo[1,2-b]pyridazin-2-yl)(4,4-difluorocyclohexyl)methyl)-3-(difluoromethyl)benzamide] has an IC50 [1] of 41 nM and an IC50 [2] of 220 nM.
`O=C(CCC(F)(F)F)N[C@@H](c1cnn2cc([C@@H](NC(=O)c3ccnc(OCC(F)(F)F)c3)C3CCC(F)(F)CC3)nc2c1)C1CC1` [Example 171, N—((S)-(7-((R)-Cyclopropyl(4,4,4-trifluorobutanamido)methyl)imidazo[1,2-b]pyridazin-2-yl)(4,4-difluorocyclohexyl)methyl)-2-(2,2,2-trifluoroethoxy)isonicotinamide] showed an IC50 [1] of 48 nM and an IC50 [2] of 320 nM.
Work on `O=C(CCC(F)(F)F)N[C@@H](c1cnn2cc([C@@H](NC(=O)c3ccnc(OC4CC4)c3)C3CCC(F)(F)CC3)nc2c1)C1CC1` [Example 172, 2-Cyclopropoxy-N—((S)-(7-((R)-cyclopropyl(4,4,4-trifluorobutanamido)methyl)imidazo[1,2-b]pyridazin-2-yl)(4,4-difluorocyclohexyl)methyl)isonicotinamide] yielded an IC50 [1] of 44 nM and an IC50 [2] of 320 nM.
Compound `O=C(CCC(F)(F)F)N[C@@H](c1cnn2cc([C@@H](NC(=O)c3cccc(F)c3)C3CCC(F)(F)CC3)nc2c1)C1CC1` [Example 173, N—((S)-(7-((R)-Cyclopropyl(4,4,4-trifluorobutanamido)methyl)imidazo[1,2-b]pyridazin-2-yl)(4,4-difluorocyclohexyl)methyl)-3-fluorobenzamide] has an IC50 [1] of 60 nM and an IC50 [2] of 340 nM.
In the case of `O=C(CCC(F)(F)F)N[C@@H](c1cnn2cc([C@@H](NC(=O)c3cccc(OCC(F)(F)F)c3)C3CCC(F)(F)CC3)nc2c1)C1CC1` [Example 174, N—((S)-(7-((R)-Cyclopropyl(4,4,4-trifluorobutanamido)methyl)imidazo[1,2-b]pyridazin-2-yl)(4,4-difluorocyclohexyl)methyl)-3-(2,2,2-trifluoroethoxy)benzamide], the IC50 [1] is reported as 80 nM and the IC50 [2] is reported as 390 nM.
Work on `CC(C)Oc1cc(C(=O)N[C@H](c2cn3ncc([C@H](NC(=O)CCC(F)(F)F)C4CC4)cc3n2)C2CCC(F)(F)CC2)ccn1` [Example 175, N—((S)-(7-((R)-Cyclopropyl(4,4,4-trifluorobutanamido)methyl)imidazo[1,2-b]pyridazin-2-yl)(4,4-difluorocyclohexyl)methyl)-2-isopropoxyisonicotinamide] yielded an IC50 [1] of 80 nM and an IC50 [2] of 400 nM.
With `O=C(CCC(F)(F)F)N[C@@H](c1cnn2cc([C@@H](NC(=O)c3cncc(N4CCCC4=O)c3)C3CCC(F)(F)CC3)nc2c1)C1CC1` [Example 176, N—((S)-(7-((R)-Cyclopropyl(4,4,4-trifluorobutanamido)methyl)imidazo[1,2-b]pyridazin-2-yl)(4,4-difluorocyclohexyl)methyl)-5-(2-oxopyrrolidin-1-yl)nicotinamide] the IC50 [1] was 110 nM and the IC50 [2] was 420 nM.
Compound `CCOc1cc(C(=O)N[C@H](c2cn3ncc([C@H](NC(=O)CCC(F)(F)F)C4CC4)cc3n2)C2CCC(F)(F)CC2)ccn1` [Example 177, N—((S)-(7-((R)-Cyclopropyl(4,4,4-trifluorobutanamido)methyl)imidazo[1,2-b]pyridazin-2-yl)(4,4-difluorocyclohexyl)methyl)-2-ethoxyisonicotinamide] has an IC50 [1] of 53 nM and an IC50 [2] of 440 nM.
Compound `O=C(CCC(F)(F)F)N[C@@H](c1cnn2cc([C@@H](NC(=O)c3cncc(C(F)(F)F)c3)C3CCC(F)(F)CC3)nc2c1)C1CC1` [Example 178, N—((S)-(7-((R)-Cyclopropyl(4,4,4-trifluorobutanamido)methyl)imidazo[1,2-b]pyridazin-2-yl)(4,4-difluorocyclohexyl)methyl)-5-(trifluoromethyl)nicotinamide] has an IC50 [1] of 67 nM and an IC50 [2] of 450 nM.
For `O=C(CCC(F)(F)F)N[C@@H](c1cnn2cc([C@@H](NC(=O)c3ccnc(OCC(F)F)c3)C3CCC(F)(F)CC3)nc2c1)C1CC1` [Example 179, N—((S)-(7-((R)-Cyclopropyl(4,4,4-trifluorobutanamido)methyl)imidazo[1,2-b]pyridazin-2-yl)(4,4-difluorocyclohexyl)methyl)-2-(2,2-difluoroethoxy)isonicotinamide], the IC50 [1] was 45 nM and the IC50 [2] was 450 nM.
`O=C(CCC(F)(F)F)N[C@@H](c1cnn2cc([C@@H](NC(=O)c3cccc(OCC4CC4)c3)C3CCC(F)(F)CC3)nc2c1)C1CC1` [Example 180, N—((S)-(7-((R)-Cyclopropyl(4,4,4-trifluorobutanamido)methyl)imidazo[1,2-b]pyridazin-2-yl)(4,4-difluorocyclohexyl)methyl)-3-(cyclopropylmethoxy)benzamide] was tested, and the IC50 [1] was 130 nM and the IC50 [2] was 450 nM.
`O=C(CCC(F)(F)F)N[C@@H](c1cnn2cc([C@@H](NC(=O)c3ccnc(OC4CCC4)c3)C3CCC(F)(F)CC3)nc2c1)C1CC1` [Example 181, 2-Cyclobutoxy-N—((S)-(7-((R)-cyclopropyl(4,4,4-trifluorobutanamido)methyl)imidazo[1,2-b]pyridazin-2-yl)(4,4-difluorocyclohexyl)methyl)isonicotinamide] was tested, and the IC50 [1] was 80 nM and the IC50 [2] was 460 nM.
`O=C(CCC(F)(F)F)N[C@@H](c1cnn2cc([C@@H](NC(=O)c3ccc(F)cc3)C3CCC(F)(F)CC3)nc2c1)C1CC1` [Example 182, N—((S)-(7-((R)-Cyclopropyl(4,4,4-trifluorobutanamido)methyl)imidazo[1,2-b]pyridazin-2-yl)(4,4-difluorocyclohexyl)methyl)-4-fluorobenzamide] was tested, and the IC50 [1] was 85 nM and the IC50 [2] was 510 nM.
`O=C(CCC(F)(F)F)N[C@@H](c1cnn2cc([C@@H](NC(=O)c3cncc(OCC(F)F)c3)C3CCC(F)(F)CC3)nc2c1)C1CC1` [Example 183, N—((S)-(7-((R)-Cyclopropyl(4,4,4-trifluorobutanamido)methyl)imidazo[1,2-b]pyridazin-2-yl)(4,4-difluorocyclohexyl)methyl)-5-(2,2-difluoroethoxy)nicotinamide] gave an IC50 [1] of 69 nM and an IC50 [2] of 520 nM.
Work on `COc1cc(C(=O)N[C@H](c2cn3ncc([C@H](NC(=O)CCC(F)(F)F)C4CC4)cc3n2)C2CCC(F)(F)CC2)ccn1` [Example 184, N—((S)-(7-((R)-Cyclopropyl(4,4,4-trifluorobutanamido)methyl)imidazo[1,2-b]pyridazin-2-yl)(4,4-difluorocyclohexyl)methyl)-2-methoxyisonicotinamide] yielded an IC50 [1] of 110 nM and an IC50 [2] of 590 nM.
Compound `CC(C)Oc1cncc(C(=O)N[C@H](c2cn3ncc([C@H](NC(=O)CCC(F)(F)F)C4CC4)cc3n2)C2CCC(F)(F)CC2)c1` [Example 185, N—((S)-(7-((R)-Cyclopropyl(4,4,4-trifluorobutanamido)methyl)imidazo[1,2-b]pyridazin-2-yl)(4,4-difluorocyclohexyl)methyl)-5-isopropoxynicotinamide] has an IC50 [1] of 45 nM and an IC50 [2] of 690 nM.
Compound `O=C(CCC(F)(F)F)N[C@@H](c1cnn2cc([C@@H](NC(=O)c3ccnc(OC(F)F)c3)C3CCC(F)(F)CC3)nc2c1)C1CC1` [Example 186, N—((S)-(7-((R)-Cyclopropyl(4,4,4-trifluorobutanamido)methyl)imidazo[1,2-b]pyridazin-2-yl)(4,4-difluorocyclohexyl)methyl)-2-(difluoromethoxy)isonicotinamide] has an IC50 [1] of 110 nM and an IC50 [2] of 720 nM.
`O=C(CCC(F)(F)F)N[C@@H](c1cnn2cc([C@@H](NC(=O)c3ccccc3C(F)F)C3CCC(F)(F)CC3)nc2c1)C1CC1` [Example 187, N—((S)-(7-((R)-Cyclopropyl(4,4,4-trifluorobutanamido)methyl)imidazo[1,2-b]pyridazin-2-yl)(4,4-difluorocyclohexyl)methyl)-2-(difluoromethyl)benzamide] was tested, and the IC50 [1] was 260 nM and the IC50 [2] was 730 nM.
With `N#Cc1cccc(C(=O)N[C@H](c2cn3ncc([C@H](NC(=O)CCC(F)(F)F)C4CC4)cc3n2)C2CCC(F)(F)CC2)c1` [Example 188, 3-Cyano-N—((S)-(7-((R)-cyclopropyl(4,4,4-trifluorobutanamido)methyl)imidazo[1,2-b]pyridazin-2-yl)(4,4-difluorocyclohexyl)methyl)benzamide] the IC50 [1] was 150 nM and the IC50 [2] was 750 nM.
`COc1cncc(C(=O)N[C@H](c2cn3ncc([C@H](NC(=O)CCC(F)(F)F)C4CC4)cc3n2)C2CCC(F)(F)CC2)c1` [Example 189, N—((S)-(7-((R)-Cyclopropyl(4,4,4-trifluorobutanamido)methyl)imidazo[1,2-b]pyridazin-2-yl)(4,4-difluorocyclohexyl)methyl)-5-methoxynicotinamide] showed an IC50 [1] of 230 nM and an IC50 [2] of 810 nM.
In the case of `O=C(CCC(F)(F)F)N[C@@H](c1cnn2cc([C@@H](NC(=O)c3ccncc3)C3CCC(F)(F)CC3)nc2c1)C1CC1` [Example 190, N—((S)-(7-((R)-Cyclopropyl(4,4,4-trifluorobutanamido)methyl)imidazo[1,2-b]pyridazin-2-yl)(4,4-difluorocyclohexyl)methyl)isonicotinamide], the IC50 [1] is reported as 220 nM and the IC50 [2] is reported as 820 nM.
